Measurements reported in ChEMBL document CHEMBL1201862, “PubChem BioAssay data set” (2004).
Activity calls are given as the source filed them.

Assays:
[1] = target: Neuropeptide Y receptor type 1 (Homo sapiens, UniProt P25929); assay type: functional;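 further: HEK293 cells with a CNG channel challenged with NPY then isoproterenol; potency as antagonist that reverses NPY suppression of cAMP signal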
[2] = target: Neuropeptide Y receptor type 2 (Homo sapiens, UniProt P49146); assay type: functional, cell-based;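 further: HEK293 cells expressing the receptor and a CNG channel; stimulus was NPY near EC95 followed by isoproterenol to raise cAMP; antagonist potency measured as restoring cAMP signal that NPY suppresses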
Chain of Neuropeptide Y receptor type 2 (P49146 whole entry): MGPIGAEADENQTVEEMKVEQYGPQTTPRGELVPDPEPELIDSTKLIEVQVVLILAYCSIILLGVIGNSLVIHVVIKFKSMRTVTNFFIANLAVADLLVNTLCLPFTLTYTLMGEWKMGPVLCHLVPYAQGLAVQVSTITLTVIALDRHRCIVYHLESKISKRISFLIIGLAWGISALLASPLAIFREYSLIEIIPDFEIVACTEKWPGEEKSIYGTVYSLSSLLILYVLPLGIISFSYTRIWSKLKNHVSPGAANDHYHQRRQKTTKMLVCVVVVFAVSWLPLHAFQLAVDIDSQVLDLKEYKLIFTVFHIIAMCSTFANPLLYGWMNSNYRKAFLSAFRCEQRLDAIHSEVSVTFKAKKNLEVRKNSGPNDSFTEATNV

[3] = Trypanosoma cruzi growth suppression in host cells – NIH3T3 host cells, beta-gal luminescence, confirmation (AID 2044); assay type: functional, cell-based;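 further: intracellular parasites grown in NIH/3T3 mouse fibroblasts as host cells; luminescent beta-galactosidase reporter signal from transgenic T. cruzi replicating inside host cells; inhibitors lower the luminescence signal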
[4] = target: Mucolipin-3 (Homo sapiens, UniProt Q8TDD5); experiment: Dose response cell-based high-throughput screening assay for agonists of the transient receptor potential channel ML3 (TRPML3). [Related pubchem assays: 1526, 1424, 1448 ]; assay type: functional
[5] = NIH3T3 cell viability loss – ATP luminescence, mouse fibroblasts, counter-screen, dose response (AID 2010); assay type: functional, cell-based;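 further: cells exposed to compound for about 90 hours before reading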
[6] = target: Ion channel NompC (Danio rerio, UniProt Q7T1G6); experiment: Fluorescence counterscreen assay for TRPML3 agonists: dose response cell-based high-throughput screening assay to identify agonists of the transient receptor potential channel N1 (TRPN1). [Related pubchem assays: 1526, 1424, 1448 ]; assay type: functional
[7] = target: Epstein-Barr nuclear antigen 1 (Epstein-Barr virus (strain B95-8) (HHV-4) (Human herpesvirus 4), UniProt P03211); experiment: inhibition of EBV nuclear antigen 1 DNA binding – biochemical, fluorescence polarization, 1536-well, dose response (AID 2381); parameters: species or system human gammaherpesvirus 4;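 further: fluorescence polarization of a Cy5 DNA probe bound by EBNA-1 protein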
[8] = target: Lytic switch protein BZLF1 (Epstein-Barr virus (strain B95-8) (HHV-4) (Human herpesvirus 4), UniProt P03206); experiment: inhibition of BZLF1 ZTA DNA binding – biochemical, fluorescence polarization, Epstein-Barr virus, 1536-well, counter-screen for EBNA-1 inhibitor project, dose response (AID 2377); parameters: species or system human gammaherpesvirus 4;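 further: fluorescence polarization of Cy5-labelled ZRE DNA probe bound by purified Zta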
Chain of Lytic switch protein BZLF1 (P03206 whole entry): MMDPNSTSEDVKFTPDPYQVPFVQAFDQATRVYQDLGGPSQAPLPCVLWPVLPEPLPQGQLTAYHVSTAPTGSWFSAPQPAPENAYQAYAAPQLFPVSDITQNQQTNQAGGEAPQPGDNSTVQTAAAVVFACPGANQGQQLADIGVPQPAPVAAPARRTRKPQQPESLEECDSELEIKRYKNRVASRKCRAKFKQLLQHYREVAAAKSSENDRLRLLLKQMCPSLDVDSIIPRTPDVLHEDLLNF

[9] = target: Protein-tyrosine kinase 2-beta (Homo sapiens, UniProt Q14289);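 further: potency of inhibitors of PYK2 kinase phosphorylation of poly-GT substrate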
Chain of Protein-tyrosine kinase 2-beta (Q14289 whole entry): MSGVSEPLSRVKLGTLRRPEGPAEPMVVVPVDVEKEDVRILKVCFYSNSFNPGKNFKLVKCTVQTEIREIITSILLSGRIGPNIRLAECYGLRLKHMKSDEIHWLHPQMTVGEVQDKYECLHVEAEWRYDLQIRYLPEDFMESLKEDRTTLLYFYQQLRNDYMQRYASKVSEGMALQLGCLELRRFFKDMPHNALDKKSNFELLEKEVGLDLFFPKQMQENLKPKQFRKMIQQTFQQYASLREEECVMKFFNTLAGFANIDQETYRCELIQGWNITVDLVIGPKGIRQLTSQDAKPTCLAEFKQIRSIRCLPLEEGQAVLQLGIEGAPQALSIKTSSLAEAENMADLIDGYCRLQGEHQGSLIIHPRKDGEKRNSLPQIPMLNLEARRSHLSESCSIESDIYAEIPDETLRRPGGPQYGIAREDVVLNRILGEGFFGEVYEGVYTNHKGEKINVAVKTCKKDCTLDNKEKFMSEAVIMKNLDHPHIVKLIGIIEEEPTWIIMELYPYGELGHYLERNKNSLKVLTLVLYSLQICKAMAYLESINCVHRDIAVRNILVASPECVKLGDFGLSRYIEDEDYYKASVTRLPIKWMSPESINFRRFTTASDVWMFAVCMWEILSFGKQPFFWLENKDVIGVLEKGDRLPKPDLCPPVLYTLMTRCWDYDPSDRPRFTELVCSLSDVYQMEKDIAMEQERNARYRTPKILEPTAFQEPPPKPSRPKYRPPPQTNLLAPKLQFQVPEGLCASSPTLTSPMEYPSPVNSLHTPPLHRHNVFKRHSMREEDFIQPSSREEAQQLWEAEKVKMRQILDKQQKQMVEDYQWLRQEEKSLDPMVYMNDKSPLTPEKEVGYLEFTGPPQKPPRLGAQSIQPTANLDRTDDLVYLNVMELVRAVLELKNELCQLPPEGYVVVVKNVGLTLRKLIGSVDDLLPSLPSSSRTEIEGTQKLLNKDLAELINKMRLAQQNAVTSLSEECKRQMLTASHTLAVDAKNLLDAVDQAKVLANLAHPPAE

[10] = target: T1, Replicative DNA helicase DnaB (Mycobacterium tuberculosis, UniProt P9WMR3); experiment: DnaB intein splicing inhibitors, dose response, biochemical, cell-free fluorescence (AID 449749); assay type: functional
T1 sequence (P9WMR3 whole entry): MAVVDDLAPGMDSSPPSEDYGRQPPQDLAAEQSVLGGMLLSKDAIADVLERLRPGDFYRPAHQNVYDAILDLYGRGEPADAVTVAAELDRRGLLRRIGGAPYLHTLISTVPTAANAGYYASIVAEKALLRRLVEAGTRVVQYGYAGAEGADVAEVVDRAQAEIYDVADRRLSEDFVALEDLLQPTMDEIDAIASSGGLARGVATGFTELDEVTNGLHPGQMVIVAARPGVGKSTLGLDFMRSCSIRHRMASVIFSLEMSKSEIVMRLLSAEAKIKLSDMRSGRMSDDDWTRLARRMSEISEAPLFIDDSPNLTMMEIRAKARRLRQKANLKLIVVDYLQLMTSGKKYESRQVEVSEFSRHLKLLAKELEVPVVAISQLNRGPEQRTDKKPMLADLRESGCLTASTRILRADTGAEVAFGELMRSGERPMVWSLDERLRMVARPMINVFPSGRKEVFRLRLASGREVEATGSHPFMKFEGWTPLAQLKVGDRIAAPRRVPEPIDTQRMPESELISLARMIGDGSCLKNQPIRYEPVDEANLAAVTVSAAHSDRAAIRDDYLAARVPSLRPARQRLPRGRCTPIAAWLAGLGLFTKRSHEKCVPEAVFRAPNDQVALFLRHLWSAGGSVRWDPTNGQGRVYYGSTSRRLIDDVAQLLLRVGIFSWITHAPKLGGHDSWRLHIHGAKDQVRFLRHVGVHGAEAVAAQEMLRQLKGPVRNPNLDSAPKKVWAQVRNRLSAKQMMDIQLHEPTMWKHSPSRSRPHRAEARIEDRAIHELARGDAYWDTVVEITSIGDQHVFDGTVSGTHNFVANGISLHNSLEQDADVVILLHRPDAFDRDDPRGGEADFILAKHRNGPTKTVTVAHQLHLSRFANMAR

[11] = target: T2, Apoptotic protease-activating factor 1 (Homo sapiens, UniProt O14727); assay type: functional
T2 sequence (O14727 whole entry): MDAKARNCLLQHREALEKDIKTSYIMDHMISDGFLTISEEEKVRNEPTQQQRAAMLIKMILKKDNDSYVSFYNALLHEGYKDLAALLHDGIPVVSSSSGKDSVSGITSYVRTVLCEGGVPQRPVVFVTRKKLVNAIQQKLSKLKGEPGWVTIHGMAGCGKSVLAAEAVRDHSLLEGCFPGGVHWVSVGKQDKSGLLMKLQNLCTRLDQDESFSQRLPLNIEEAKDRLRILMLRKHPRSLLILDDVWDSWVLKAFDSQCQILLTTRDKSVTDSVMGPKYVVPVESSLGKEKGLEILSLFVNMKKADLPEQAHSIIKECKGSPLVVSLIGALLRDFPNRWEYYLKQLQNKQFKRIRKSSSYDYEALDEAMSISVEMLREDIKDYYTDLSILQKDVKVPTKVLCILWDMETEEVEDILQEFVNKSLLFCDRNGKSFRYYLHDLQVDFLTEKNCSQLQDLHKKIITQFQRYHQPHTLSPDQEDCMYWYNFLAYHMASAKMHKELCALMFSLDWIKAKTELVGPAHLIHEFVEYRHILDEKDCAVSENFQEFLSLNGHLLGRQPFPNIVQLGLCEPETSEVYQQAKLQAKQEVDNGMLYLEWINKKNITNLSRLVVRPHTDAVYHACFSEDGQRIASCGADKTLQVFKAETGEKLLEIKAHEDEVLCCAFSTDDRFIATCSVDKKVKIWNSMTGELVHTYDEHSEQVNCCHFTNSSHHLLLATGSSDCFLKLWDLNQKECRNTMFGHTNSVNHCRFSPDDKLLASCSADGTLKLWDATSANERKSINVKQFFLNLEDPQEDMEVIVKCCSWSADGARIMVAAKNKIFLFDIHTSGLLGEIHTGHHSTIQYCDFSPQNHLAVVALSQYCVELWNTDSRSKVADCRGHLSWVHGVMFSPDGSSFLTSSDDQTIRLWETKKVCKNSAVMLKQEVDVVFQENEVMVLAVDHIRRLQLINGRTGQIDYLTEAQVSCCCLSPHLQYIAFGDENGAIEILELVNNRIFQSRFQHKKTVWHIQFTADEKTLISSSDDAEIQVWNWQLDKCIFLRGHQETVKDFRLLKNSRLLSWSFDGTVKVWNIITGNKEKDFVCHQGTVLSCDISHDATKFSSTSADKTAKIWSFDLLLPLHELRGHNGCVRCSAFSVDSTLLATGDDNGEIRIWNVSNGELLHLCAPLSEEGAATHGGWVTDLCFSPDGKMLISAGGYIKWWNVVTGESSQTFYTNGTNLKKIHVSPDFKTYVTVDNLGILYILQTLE

[12] = target: T3, Protein RecA (Mycobacterium tuberculosis, UniProt P9WHJ3); experiment: Fluorescence Cell-Free Homogeneous Dose Retest to Identify Inhibitors of RecA-Intein Splicing Activity. [Related pubchem assays (depositor defined):AID2097, AID2223, AID489010, AID492950]; assay type: functional
T3 sequence (P9WHJ3 whole entry): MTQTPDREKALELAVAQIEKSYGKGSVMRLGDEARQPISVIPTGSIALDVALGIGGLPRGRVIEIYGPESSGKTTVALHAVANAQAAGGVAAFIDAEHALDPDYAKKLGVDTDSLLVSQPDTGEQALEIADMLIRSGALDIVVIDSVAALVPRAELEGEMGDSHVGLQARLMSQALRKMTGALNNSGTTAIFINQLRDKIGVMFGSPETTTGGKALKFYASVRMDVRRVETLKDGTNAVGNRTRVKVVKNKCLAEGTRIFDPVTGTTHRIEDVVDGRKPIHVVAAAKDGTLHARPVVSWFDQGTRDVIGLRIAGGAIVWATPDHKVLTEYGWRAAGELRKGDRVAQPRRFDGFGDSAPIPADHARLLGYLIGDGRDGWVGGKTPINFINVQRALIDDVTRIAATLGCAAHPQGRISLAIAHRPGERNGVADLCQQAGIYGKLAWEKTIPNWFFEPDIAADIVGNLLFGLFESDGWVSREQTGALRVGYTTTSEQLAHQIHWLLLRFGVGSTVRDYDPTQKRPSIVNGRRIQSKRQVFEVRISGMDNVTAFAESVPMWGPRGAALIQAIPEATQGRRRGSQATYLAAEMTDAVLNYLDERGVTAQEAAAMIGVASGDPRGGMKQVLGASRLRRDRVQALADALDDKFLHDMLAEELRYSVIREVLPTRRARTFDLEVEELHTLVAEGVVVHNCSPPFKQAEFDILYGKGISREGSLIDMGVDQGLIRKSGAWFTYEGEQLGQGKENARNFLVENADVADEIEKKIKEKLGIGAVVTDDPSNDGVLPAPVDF

[13] = target: T4, Sentrin-specific protease 8 (Homo sapiens, UniProt Q96LD8); assay type: functional
T4 sequence (Q96LD8 whole entry): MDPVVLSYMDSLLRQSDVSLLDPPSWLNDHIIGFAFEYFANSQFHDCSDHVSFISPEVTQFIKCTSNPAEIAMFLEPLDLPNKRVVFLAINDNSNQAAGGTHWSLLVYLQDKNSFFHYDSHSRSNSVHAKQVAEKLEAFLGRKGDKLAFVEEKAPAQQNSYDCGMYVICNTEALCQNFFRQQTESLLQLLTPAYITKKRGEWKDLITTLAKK

[14] = target: T4, Sentrin-specific protease 8; assay type: functional; remark: listed apart in the source
[15] = target: Bcl-2-like protein 10 (Homo sapiens, UniProt Q9HD36); experiment: Concentration-response of Bcl-B inhibitors by biochemical FP with TR3 (AID 1243); assay type: functional
Chain of Bcl-2-like protein 10 (Q9HD36 whole entry): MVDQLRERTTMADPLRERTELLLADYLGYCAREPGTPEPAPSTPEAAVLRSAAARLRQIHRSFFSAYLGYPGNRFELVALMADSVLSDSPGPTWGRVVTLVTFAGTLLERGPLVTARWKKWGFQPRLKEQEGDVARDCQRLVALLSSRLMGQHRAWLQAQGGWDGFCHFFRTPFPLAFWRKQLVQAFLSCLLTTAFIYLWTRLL

[16] = antiviral protection against BTV-induced cell death – arbovirus, BSR cells, confirmation (AID 1250); assay type: functional;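 further: protection from viral cytopathic effect measured as cell viability by ATP luminescence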
[17] = system: Streptococcus sp. 'group A'; experiment: Streptococcus pyogenes SK(-)GAS viability under kanamycin – luminescence, BacTiterGlo, confirmation, counter-screen for streptokinase expression inhibitor project, dose response (AID 1900); assay type: functional, organism-based
[18] = target: T5, Streptokinase A (Streptococcus pyogenes serotype M1, UniProt P10520); experiment: viability-normalized secreted streptokinase activity reduction – plasminogen activation absorbance, OD405, dose response (AID 1914); assay type: functional, Streptococcus pyogenes M1 GAS;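 further: secreted streptokinase activity via plasminogen activation per viability signal from cell pellet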
T5 sequence (P10520 whole entry): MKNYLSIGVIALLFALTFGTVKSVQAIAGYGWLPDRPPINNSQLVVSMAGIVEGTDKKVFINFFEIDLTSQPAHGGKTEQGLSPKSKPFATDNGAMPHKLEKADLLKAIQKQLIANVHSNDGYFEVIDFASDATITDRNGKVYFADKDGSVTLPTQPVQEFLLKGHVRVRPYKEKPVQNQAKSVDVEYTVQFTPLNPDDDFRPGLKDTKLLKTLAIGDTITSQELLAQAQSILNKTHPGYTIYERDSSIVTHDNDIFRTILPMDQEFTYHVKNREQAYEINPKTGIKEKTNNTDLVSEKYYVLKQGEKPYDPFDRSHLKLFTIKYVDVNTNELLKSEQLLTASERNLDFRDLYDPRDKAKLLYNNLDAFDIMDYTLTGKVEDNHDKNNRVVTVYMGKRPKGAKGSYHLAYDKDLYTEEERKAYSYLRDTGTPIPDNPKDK

[19] = CCR5-tropic HIV-1 fusion blockers – cell-based, CCR5-tropic Env, dose response (AID 2279); assay type: functional
[20] = target: Induced myeloid leukemia cell differentiation protein Mcl-1 (Homo sapiens, UniProt Q07820); assay type: functional
Chain of Induced myeloid leukemia cell differentiation protein Mcl-1 (Q07820 whole entry): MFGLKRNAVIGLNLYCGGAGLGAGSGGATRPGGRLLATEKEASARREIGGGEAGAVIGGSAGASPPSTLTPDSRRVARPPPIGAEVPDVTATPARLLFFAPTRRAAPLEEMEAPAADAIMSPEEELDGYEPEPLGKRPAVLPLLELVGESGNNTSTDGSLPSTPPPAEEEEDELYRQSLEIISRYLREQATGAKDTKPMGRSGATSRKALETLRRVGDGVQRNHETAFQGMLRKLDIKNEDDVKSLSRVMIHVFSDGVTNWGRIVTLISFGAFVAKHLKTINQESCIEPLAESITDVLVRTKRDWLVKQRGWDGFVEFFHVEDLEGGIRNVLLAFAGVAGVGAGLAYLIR

[21] = system: Streptococcus; experiment: GAS UMAA2166 growth inhibition – luminescence, BacTiterGlo, counter-screen for streptokinase expression inhibitor project, dose response (AID 1915); assay type: functional, organism-based;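 further: potency for reduction of bacterial viability or growth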
[22] = target: Sphingosine 1-phosphate receptor 2 (Homo sapiens, UniProt O95136); experiment: Dose Response Cell Based Assay for Agonists of the S1P2 Receptor of Purchased Analogues. [Related pubchem assays: 729, 843, 854, 736 ]; assay type: functional
[23] = target: 5-hydroxytryptamine receptor 1E (Homo sapiens, UniProt P28566); experiment: Counterscreen assay for S1P3 antagonists: Dose response cell-based high throughput screening assay to identify antagonists of the 5-Hydroxytryptamine Receptor Subtype 1E (5HT1E). [Related pubchem assays: 1429, 485 ]; assay type: functional
[24] = target: Sphingosine 1-phosphate receptor 3 (Homo sapiens, UniProt Q99500); experiment: Dose response cell-based high throughput screening assay for antagonists of the Sphingosine 1-Phosphate Receptor 3 (S1P3). [Related pubchem assays: 1429, 485 ]; assay type: functional
Chain of Sphingosine 1-phosphate receptor 3 (Q99500 whole entry): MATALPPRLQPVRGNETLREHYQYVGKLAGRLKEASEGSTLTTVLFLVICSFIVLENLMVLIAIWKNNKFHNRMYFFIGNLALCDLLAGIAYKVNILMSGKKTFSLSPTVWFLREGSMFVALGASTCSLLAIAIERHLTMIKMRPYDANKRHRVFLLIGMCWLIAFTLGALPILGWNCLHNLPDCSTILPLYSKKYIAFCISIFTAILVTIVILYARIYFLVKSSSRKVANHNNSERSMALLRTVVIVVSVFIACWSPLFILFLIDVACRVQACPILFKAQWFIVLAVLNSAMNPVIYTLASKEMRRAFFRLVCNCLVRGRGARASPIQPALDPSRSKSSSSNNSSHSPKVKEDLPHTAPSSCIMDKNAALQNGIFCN

[25] = target: T6, Fatty acid synthase (Homo sapiens, UniProt P49327); experiment: inhibition of human FAS-TE enzyme activity – biochemical, endpoint fluorescence intensity, uHTS hits, dose response (AID 624327); assay type: functional;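 further: fluorescence from hydrolysis of an O-methyl fluorescein acyl ester substrate by the enzyme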
T6 sequence (P49327 whole entry): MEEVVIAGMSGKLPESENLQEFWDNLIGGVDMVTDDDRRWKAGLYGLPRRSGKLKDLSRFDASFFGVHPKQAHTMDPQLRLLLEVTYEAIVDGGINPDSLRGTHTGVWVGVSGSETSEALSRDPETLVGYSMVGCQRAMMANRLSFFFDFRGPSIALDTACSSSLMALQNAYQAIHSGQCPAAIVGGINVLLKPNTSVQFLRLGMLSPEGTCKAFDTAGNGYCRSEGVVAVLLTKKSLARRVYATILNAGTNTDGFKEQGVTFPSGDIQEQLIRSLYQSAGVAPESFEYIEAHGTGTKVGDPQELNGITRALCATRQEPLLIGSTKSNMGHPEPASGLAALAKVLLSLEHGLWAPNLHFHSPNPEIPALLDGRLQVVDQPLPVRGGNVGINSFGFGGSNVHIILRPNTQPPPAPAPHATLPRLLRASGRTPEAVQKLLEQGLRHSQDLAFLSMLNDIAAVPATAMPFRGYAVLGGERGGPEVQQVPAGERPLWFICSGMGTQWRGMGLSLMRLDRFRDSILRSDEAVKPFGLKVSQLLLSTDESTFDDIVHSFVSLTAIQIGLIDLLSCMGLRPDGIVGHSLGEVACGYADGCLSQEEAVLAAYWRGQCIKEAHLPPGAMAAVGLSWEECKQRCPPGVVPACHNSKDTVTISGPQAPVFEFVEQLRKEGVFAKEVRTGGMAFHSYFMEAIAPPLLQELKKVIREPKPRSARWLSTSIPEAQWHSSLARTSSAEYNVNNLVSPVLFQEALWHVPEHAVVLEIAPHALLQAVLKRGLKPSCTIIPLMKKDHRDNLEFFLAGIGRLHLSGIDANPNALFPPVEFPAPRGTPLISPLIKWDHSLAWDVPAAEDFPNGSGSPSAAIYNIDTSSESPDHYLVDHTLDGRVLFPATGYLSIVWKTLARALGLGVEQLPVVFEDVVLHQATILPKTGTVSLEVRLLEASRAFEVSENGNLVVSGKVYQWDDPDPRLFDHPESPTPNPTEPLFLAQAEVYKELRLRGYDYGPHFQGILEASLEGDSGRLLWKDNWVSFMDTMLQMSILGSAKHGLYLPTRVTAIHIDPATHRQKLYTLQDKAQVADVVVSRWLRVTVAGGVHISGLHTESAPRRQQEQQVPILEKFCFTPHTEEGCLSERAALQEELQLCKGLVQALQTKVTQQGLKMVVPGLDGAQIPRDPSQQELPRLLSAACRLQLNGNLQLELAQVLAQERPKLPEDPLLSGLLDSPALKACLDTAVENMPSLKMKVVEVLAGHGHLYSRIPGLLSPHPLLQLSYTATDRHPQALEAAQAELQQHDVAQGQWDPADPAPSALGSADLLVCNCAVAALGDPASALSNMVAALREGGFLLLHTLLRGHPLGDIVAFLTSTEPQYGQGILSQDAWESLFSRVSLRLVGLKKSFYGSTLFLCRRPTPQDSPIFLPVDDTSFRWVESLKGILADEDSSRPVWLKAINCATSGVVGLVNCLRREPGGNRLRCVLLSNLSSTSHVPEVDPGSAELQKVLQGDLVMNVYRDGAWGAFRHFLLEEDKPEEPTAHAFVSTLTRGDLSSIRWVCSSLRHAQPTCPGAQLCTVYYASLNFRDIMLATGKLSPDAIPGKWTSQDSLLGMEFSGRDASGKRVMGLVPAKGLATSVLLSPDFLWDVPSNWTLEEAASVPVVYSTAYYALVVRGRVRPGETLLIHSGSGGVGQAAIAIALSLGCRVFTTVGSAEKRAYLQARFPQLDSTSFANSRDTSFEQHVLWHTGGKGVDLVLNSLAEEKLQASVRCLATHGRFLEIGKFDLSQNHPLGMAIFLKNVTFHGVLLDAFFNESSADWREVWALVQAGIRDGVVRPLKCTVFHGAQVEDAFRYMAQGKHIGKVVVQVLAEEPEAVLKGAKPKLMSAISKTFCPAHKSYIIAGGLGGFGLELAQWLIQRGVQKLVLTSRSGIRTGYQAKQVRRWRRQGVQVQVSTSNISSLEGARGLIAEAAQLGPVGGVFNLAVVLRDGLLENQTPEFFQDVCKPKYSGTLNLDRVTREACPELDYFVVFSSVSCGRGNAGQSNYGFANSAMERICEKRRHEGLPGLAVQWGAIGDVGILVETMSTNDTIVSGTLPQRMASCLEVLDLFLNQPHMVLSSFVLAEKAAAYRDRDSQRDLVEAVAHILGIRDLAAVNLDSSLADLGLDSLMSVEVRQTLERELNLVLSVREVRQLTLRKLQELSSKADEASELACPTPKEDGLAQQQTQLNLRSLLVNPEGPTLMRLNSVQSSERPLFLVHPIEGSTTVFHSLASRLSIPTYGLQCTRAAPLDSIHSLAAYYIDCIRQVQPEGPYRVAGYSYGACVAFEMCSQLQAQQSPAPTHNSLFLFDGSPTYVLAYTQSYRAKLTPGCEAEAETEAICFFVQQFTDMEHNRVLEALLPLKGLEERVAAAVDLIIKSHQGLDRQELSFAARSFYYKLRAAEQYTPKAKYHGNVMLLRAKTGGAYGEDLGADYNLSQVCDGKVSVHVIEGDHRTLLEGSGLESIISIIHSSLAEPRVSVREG

[26] = target: T6, Fatty acid synthase; experiment: inhibition of human FAS-TE enzyme activity – biochemical, kinetic fluorescence intensity, dose response (AID 624326); assay type: functional;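 further: rate of fluorescence rise from hydrolysis of a fluorogenic O-methyl fluorescein ester substrate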

In the case of `N#Cc1nc(COc2ccc(Cl)cc2)oc1N1CCCCCC1`, the IC50 [1] is reported as 6.66 µM (active) and the IC50 [2] is reported as 16.1 µM (not active).

With `CCN(CC)c1ccc(NC(=O)COc2ccc(N(C)S(=O)(=O)c3cccs3)cc2)cc1` the EC50 [3] was 2.28 µM (active), the EC50 [4] was > 29.9 µM (not active) and the EC50 [5] was > 30 µM (not active). For the same compound, the EC50 [6] was > 29.9 µM (not active).

For `COC(=O)c1cccc(S(=O)(=O)N2CCC(NC(=O)Nc3cccc(F)c3)CC2)c1`, the IC50 [7] was 6.09 µM (active) and the IC50 [8] was > 111 µM (not active).

In the case of `O=C1Cc2ccccc2C(=O)N1Cc1ccccc1`, the IC50 [9] is reported as > 69.5 µM (not active), the AC50 [10] is reported as > 380 µM (inconclusive) and the IC50 [11] is reported as 3.89 µM (active). The EC50 [12] was 2.04 µM (active), the IC50 [13] was > 100 µM (inactive) and the IC50 [14] was 1.06 µM (active).

In the case of `O=C(O)c1ccc2c(c1)C1C=CCC1C(c1cccc([N+](=O)[O-])c1)N2` (stereo unspecified), the EC50 [15] is reported as 1.75 µM (active).

For `COc1ccc(/C=C/C(=O)Nc2cc(C(F)(F)F)ccc2Cl)cc1OC`, the IC50 [16] was 27.9 µM (active).

With `CC(C)(C)c1cc(-c2csc(Nc3ccccc3)[n+]2Cc2ccc(C(=O)O)cc2)cc(C(C)(C)C)c1O` the EC50 [17] was 1.64 µM (active), the EC50 [18] was > 150 µM (not active) and the IC50 [19] was 20.7 µM (active). The IC50 [20] was 2.01 µM (active) and the EC50 [21] was 2.87 µM (active).

With `CNC(=O)c1ccc(CN(C)CC(=O)c2cc(C)n(Cc3ccccc3)c2C)cc1` the EC50 [22] was > 30 µM (not active).

In the case of `Cc1ccc(NC(=O)C2(c3ccc([N+](=O)[O-])cc3)CCCC2)cc1`, the IC50 [23] is reported as 9.48 µM (active), the IC50 [24] is reported as 6.92 µM (active) and the IC50 [25] is reported as 14.6 µM (active). For the same compound, the IC50 [26] was 8.73 µM (active).
